Source: patent US4051253A, “Microbicidal nitrofuryl compounds” (Byk Gulden Lomberg Chemische Fabrik GmbH, priority 1974, dated 1977)
Like-named read-outs stand apart in the source and are kept apart here.

What was measured:
enterococci = assay: microbe, parasite or virus in culture; type: cell-based; settings: for MIC: read-out: Minimum inhibiting concentration (MHK), series dilution test
S. typhimurium G 46 = settings: in vivo
Trichomonas foetus = assay: Infection tests with Trichomonas foetus in mice; type: in vivo; settings: for % of Animals Dying After Infection (Mean Value): stomach tube, 3 successive days, NMRI mice
streptoc. group B 779 = assay: microbe, parasite or virus in culture; type: cell-based; settings: for MBC: read-out: Concentration from which subcultures no longer started; for MIC: read-out: Minimum inhibiting concentration (MHK), series dilution test
[1] = test system: 9 bacteria and 2 yeast strains; assay: In vitro tests with 9 bacteria and 2 yeast strains (summary); type: cell-based; settings: even with the high concentration of 500 μg/ml
streptococci group A 807 = assay: microbe, parasite or virus in culture; type: cell-based; settings: for MIC: read-out: Minimum inhibiting concentration (MHK), series dilution test
Staph. aur. SG 511 = assay: microbe, parasite or virus in culture; type: cell-based; settings: for MIC: read-out: Minimum inhibiting concentration (MHK), series dilution test
C. Paracrusei 45 = assay: microbe, parasite or virus in culture; type: cell-based; settings: for MBC: read-out: Concentration from which subcultures no longer started; for MIC: read-out: Minimum inhibiting concentration (MHK), series dilution test
streptococci group C 805 = assay: microbe, parasite or virus in culture; type: cell-based; settings: for MBC: read-out: Concentration from which subcultures no longer started; for MIC: read-out: Minimum inhibiting concentration (MHK), series dilution test
[2] = test system: Serratia marcescens strain HY/a 21
Klebs. pneum. PCI 602 = assay: microbe, parasite or virus in culture; type: cell-based; settings: for MBC: read-out: Concentration from which subcultures no longer started; for MIC: read-out: Minimum inhibiting concentration (MHK), series dilution test
C. Albicans 49 = assay: microbe, parasite or virus in culture; type: cell-based; settings: Candida albicans; for MIC: read-out: Minimum inhibiting concentration (MHK), series dilution test
E. coli 6106 = assay: microbe, parasite or virus in culture; type: cell-based; settings: for MIC: read-out: Minimum inhibiting concentration (MHK), series dilution test
in vivo = settings: mouse
Ps. aeruginosa 2 = assay: microbe, parasite or virus in culture; type: cell-based; settings: for MIC: read-out: Minimum inhibiting concentration (MHK), series dilution test
Staph. aur. PCI 1203 = assay: microbe, parasite or virus in culture; type: cell-based; settings: for MBC: read-out: Concentration from which subcultures no longer started; for MIC: read-out: Minimum inhibiting concentration (MHK), series dilution test
[3] = 24 h, read-out: Concentration from which subcultures no longer started, subcultures applied after 24 h, read after 24 h
[4] = 48 h, read-out: Concentration from which subcultures no longer started, subcultures applied after 48 h, read after 48 h
[5] = read-out: Concentration from which subcultures no longer started, subcultures applied after 24 h, read after 48 h
[6] = read-out: Concentration from which subcultures no longer started, subcultures applied after 48 h, read after 24 h
[7] = subcultures applied after 48 h, read after 24 h

**Q.** With `Cc1ncc([N+](=O)[O-])n1CCO` [Metronidazol, reference compound] as the molecule, how does the MBC (enterococci; [3]) read?
**A.** Its MBC is over 500 µg/mL.

**Q.** What about the MIC (enterococci; 24 h) of the same molecule?
**A.** The MIC was over 500 µg/mL.

**Q.** And the MBC (enterococci; [4])?
**A.** Its MBC is over 500 µg/mL.

**Q.** What about the MIC (enterococci; 48 h) of the same molecule?
**A.** Its MIC is over 500 µg/mL.

**Q.** And the MBC (enterococci; [5])?
**A.** Its MBC is over 500 µg/mL.

**Q.** And the MBC (enterococci; [6])?
**A.** Its MBC is over 500 µg/mL.

**Q.** What about the “Mutation frequency in test animals” value (S. typhimurium G 46) of the same molecule?
**A.** Its value is 4.6 . 10^-7.

**Q.** And the “% of Animals Dying After Infection (Mean Value)” value (Trichomonas foetus; 6.25 mg/kg)?
**A.** Its value is 90%.

**Q.** And the “% of Animals Dying After Infection (Mean Value)” value (Trichomonas foetus; 12.5 mg/kg)?
**A.** The value was 80%.

**Q.** What about the “% of Animals Dying After Infection (Mean Value)” value (Trichomonas foetus; 25 mg/kg) of the same molecule?
**A.** Its value is 70%.

**Q.** And the “% of Animals Dying After Infection (Mean Value)” value (Trichomonas foetus; 50 mg/kg)?
**A.** Its value is 15%.

**Q.** What about the “% of Animals Dying After Infection (Mean Value)” value (Trichomonas foetus; 75 mg/kg) of the same molecule?
**A.** Its value is 0%.

**Q.** And the “% of Animals Dying After Infection (Mean Value)” value (Trichomonas foetus; 100 mg/kg)?
**A.** Its value is 4%.

**Q.** What about the “animals survived / survival rate” value (Trichomonas foetus; dose of 6.25 mg/kg, mice infected with T. foetus) of the same molecule?
**A.** The value was 10%.

**Q.** What about the MBC (streptoc. group B 779; 24 h) of the same molecule?
**A.** Its MBC is over 500 µg/mL.

**Q.** And the MIC (streptoc. group B 779; 24 h)?
**A.** The MIC was over 500 µg/mL.

**Q.** What about the MBC (streptoc. group B 779; 48 h) of the same molecule?
**A.** The MBC was over 500 µg/mL.

**Q.** What about the MIC (streptoc. group B 779; 48 h) of the same molecule?
**A.** Its MIC is over 500 µg/mL.

**Q.** And the MBC (streptoc. group B 779)?
**A.** Its MBC is over 500 µg/mL.

**Q.** And the “Concentration from which subcultures no longer started” value (streptoc. group B 779; [7])?
**A.** Its value is over 500 µg/mL.

**Q.** What about the “in vitro antibacterial/antiyeast effect (in words)” value [1] of the same molecule?
**A.** Its value is “ineffective”.

**Q.** And the MBC (streptococci group A 807; [3])?
**A.** The MBC was over 500 µg/mL.

**Q.** And the MIC (streptococci group A 807; 24 h)?
**A.** The MIC was over 500 µg/mL.

**Q.** What about the MBC (streptococci group A 807; [4]) of the same molecule?
**A.** The MBC was over 500 µg/mL.

**Q.** What about the MIC (streptococci group A 807; 48 h) of the same molecule?
**A.** Its MIC is over 500 µg/mL.

**Q.** What about the MBC (streptococci group A 807; [5]) of the same molecule?
**A.** Its MBC is over 500 µg/mL.

**Q.** What about the MBC (streptococci group A 807; [6]) of the same molecule?
**A.** The MBC was over 500 µg/mL.

**Q.** And the MBC (Staph. aur. SG 511; [3])?
**A.** The MBC was over 500 µg/mL.

**Q.** And the MIC (Staph. aur. SG 511; 24 h)?
**A.** The MIC was over 500 µg/mL.

**Q.** And the MBC (Staph. aur. SG 511; [4])?
**A.** The MBC was over 500 µg/mL.

**Q.** And the MIC (Staph. aur. SG 511; 48 h)?
**A.** The MIC was over 500 µg/mL.

**Q.** And the MBC (Staph. aur. SG 511; [5])?
**A.** Its MBC is over 500 µg/mL.

**Q.** And the MBC (Staph. aur. SG 511; [6])?
**A.** The MBC was over 500 µg/mL.

**Q.** And the MBC (C. Paracrusei 45; 24 h)?
**A.** Its MBC is over 500 µg/mL.

**Q.** And the MIC (C. Paracrusei 45; 24 h)?
**A.** Its MIC is over 500 µg/mL.

**Q.** And the MBC (C. Paracrusei 45; 48 h)?
**A.** The MBC was over 500 µg/mL.

**Q.** What about the MIC (C. Paracrusei 45; 48 h) of the same molecule?
**A.** Its MIC is over 500 µg/mL.

**Q.** What about the MBC (C. Paracrusei 45) of the same molecule?
**A.** Its MBC is over 500 µg/mL.

**Q.** And the “Concentration from which subcultures no longer started” value (C. Paracrusei 45; [7])?
**A.** The value was over 500 µg/mL.

**Q.** And the MBC (streptococci group C 805; 24 h)?
**A.** The MBC was over 500 µg/mL.

**Q.** What about the MIC (streptococci group C 805; 24 h) of the same molecule?
**A.** Its MIC is over 500 µg/mL.

**Q.** What about the MBC (streptococci group C 805; 48 h) of the same molecule?
**A.** The MBC was over 500 µg/mL.

**Q.** And the MIC (streptococci group C 805; 48 h)?
**A.** The MIC was over 500 µg/mL.

**Q.** And the MBC (streptococci group C 805)?
**A.** The MBC was over 500 µg/mL.

**Q.** And the “Concentration from which subcultures no longer started” value (streptococci group C 805; [7])?
**A.** The value was over 500 µg/mL.

**Q.** And the “Mutants, Test” value [2]?
**A.** The value was 5.9 × 10^2 colonies/ml.

**Q.** And the Mutation frequency [2]?
**A.** Its Mutation frequency is 3.1 × 10^-6.

**Q.** And the MBC (Klebs. pneum. PCI 602; 24 h)?
**A.** The MBC was over 500 µg/mL.

**Q.** And the MIC (Klebs. pneum. PCI 602; 24 h)?
**A.** Its MIC is over 500 µg/mL.

**Q.** What about the MBC (Klebs. pneum. PCI 602; 48 h) of the same molecule?
**A.** The MBC was over 500 µg/mL.

**Q.** And the MIC (Klebs. pneum. PCI 602; 48 h)?
**A.** The MIC was over 500 µg/mL.

**Q.** And the MBC (Klebs. pneum. PCI 602)?
**A.** Its MBC is over 500 µg/mL.

**Q.** What about the “Concentration from which subcultures no longer started” value (Klebs. pneum. PCI 602; [7]) of the same molecule?
**A.** The value was over 500 µg/mL.

**Q.** And the MBC (C. Albicans 49; [3])?
**A.** Its MBC is over 500 µg/mL.

**Q.** And the MIC (C. Albicans 49; 24 h)?
**A.** Its MIC is over 500 µg/mL.

**Q.** What about the MBC (C. Albicans 49; [4]) of the same molecule?
**A.** The MBC was over 500 µg/mL.

**Q.** What about the MIC (C. Albicans 49; 48 h) of the same molecule?
**A.** The MIC was over 500 µg/mL.

**Q.** And the MBC (C. Albicans 49; [5])?
**A.** The MBC was over 500 µg/mL.

**Q.** What about the MBC (C. Albicans 49; [6]) of the same molecule?
**A.** Its MBC is over 500 µg/mL.

**Q.** And the MBC (E. coli 6106; Escherichia coli, 6106, 24 h, read-out: Concentration from which subcultures no longer started)?
**A.** The MBC was over 500 µg/mL.

**Q.** What about the MIC (E. coli 6106; Escherichia coli, 6106, 24 h) of the same molecule?
**A.** Its MIC is over 500 µg/mL.

**Q.** And the MBC (E. coli 6106; Escherichia coli, 6106, 48 h, read-out: Concentration from which subcultures no longer started)?
**A.** Its MBC is over 500 µg/mL.

**Q.** What about the MIC (E. coli 6106; Escherichia coli, 6106, 48 h) of the same molecule?
**A.** Its MIC is over 500 µg/mL.

**Q.** What about the MBC (E. coli 6106; Escherichia coli, 6106, read-out: Concentration from which subcultures no longer started) of the same molecule?
**A.** Its MBC is over 500 µg/mL.

**Q.** What about the “Concentration from which subcultures no longer started” value (E. coli 6106; [7]) of the same molecule?
**A.** Its value is over 500 µg/mL.

**Q.** What about the LD50 (in vivo) of the same molecule?
**A.** The LD50 was over 2000 mg/kg.

**Q.** And the MBC (Ps. aeruginosa 2; Pseudomonas aeruginosa, 2, 24 h, read-out: Concentration from which subcultures no longer started)?
**A.** The MBC was over 500 µg/mL.

**Q.** What about the MIC (Ps. aeruginosa 2; Pseudomonas aeruginosa, 2, 24 h) of the same molecule?
**A.** The MIC was over 500 µg/mL.

**Q.** What about the MBC (Ps. aeruginosa 2; Pseudomonas aeruginosa, 2, 48 h, read-out: Concentration from which subcultures no longer started) of the same molecule?
**A.** Its MBC is over 500 µg/mL.

**Q.** What about the MIC (Ps. aeruginosa 2; Pseudomonas aeruginosa, 2, 48 h) of the same molecule?
**A.** The MIC was over 500 µg/mL.

**Q.** What about the MBC (Ps. aeruginosa 2; Pseudomonas aeruginosa, 2, read-out: Concentration from which subcultures no longer started) of the same molecule?
**A.** The MBC was over 500 µg/mL.

**Q.** What about the “Concentration from which subcultures no longer started” value (Ps. aeruginosa 2; [7]) of the same molecule?
**A.** The value was over 500 µg/mL.

**Q.** What about the MBC (Staph. aur. PCI 1203; 24 h) of the same molecule?
**A.** The MBC was over 500 µg/mL.

**Q.** And the MIC (Staph. aur. PCI 1203; 24 h)?
**A.** The MIC was over 500 µg/mL.

**Q.** What about the MBC (Staph. aur. PCI 1203; 48 h) of the same molecule?
**A.** Its MBC is over 500 µg/mL.

**Q.** And the MIC (Staph. aur. PCI 1203; 48 h)?
**A.** The MIC was over 500 µg/mL.

**Q.** What about the MBC (Staph. aur. PCI 1203) of the same molecule?
**A.** Its MBC is over 500 µg/mL.

**Q.** What about the “Concentration from which subcultures no longer started” value (Staph. aur. PCI 1203; [7]) of the same molecule?
**A.** The value was over 500 µg/mL.
